For three compounds, remaining binding results are on record in publication PMC6437697 (Journal of Medicinal Chemistry, 2019).

Common to all, as to assay: KINOMEscan
What all share (type): binding
Common to all, as to settings: read-out: % control activity remaining

For one experiment, the target named is T1, BUB1 (Homo sapiens, UniProt O43683).
T1 construct: purchased Eurofins DiscoverX KINOMEscan

For the next experiment, the target named is T2, CDK8 (Homo sapiens, UniProt P49336).
T2 construct: purchased Eurofins DiscoverX KINOMEscan

Another experiment deals with T3, FLT3(D835H) (Homo sapiens, UniProt P36888, D835H).
T3 construct: purchased Eurofins DiscoverX KINOMEscan
T3 sequence (P36888 27-993 D835H): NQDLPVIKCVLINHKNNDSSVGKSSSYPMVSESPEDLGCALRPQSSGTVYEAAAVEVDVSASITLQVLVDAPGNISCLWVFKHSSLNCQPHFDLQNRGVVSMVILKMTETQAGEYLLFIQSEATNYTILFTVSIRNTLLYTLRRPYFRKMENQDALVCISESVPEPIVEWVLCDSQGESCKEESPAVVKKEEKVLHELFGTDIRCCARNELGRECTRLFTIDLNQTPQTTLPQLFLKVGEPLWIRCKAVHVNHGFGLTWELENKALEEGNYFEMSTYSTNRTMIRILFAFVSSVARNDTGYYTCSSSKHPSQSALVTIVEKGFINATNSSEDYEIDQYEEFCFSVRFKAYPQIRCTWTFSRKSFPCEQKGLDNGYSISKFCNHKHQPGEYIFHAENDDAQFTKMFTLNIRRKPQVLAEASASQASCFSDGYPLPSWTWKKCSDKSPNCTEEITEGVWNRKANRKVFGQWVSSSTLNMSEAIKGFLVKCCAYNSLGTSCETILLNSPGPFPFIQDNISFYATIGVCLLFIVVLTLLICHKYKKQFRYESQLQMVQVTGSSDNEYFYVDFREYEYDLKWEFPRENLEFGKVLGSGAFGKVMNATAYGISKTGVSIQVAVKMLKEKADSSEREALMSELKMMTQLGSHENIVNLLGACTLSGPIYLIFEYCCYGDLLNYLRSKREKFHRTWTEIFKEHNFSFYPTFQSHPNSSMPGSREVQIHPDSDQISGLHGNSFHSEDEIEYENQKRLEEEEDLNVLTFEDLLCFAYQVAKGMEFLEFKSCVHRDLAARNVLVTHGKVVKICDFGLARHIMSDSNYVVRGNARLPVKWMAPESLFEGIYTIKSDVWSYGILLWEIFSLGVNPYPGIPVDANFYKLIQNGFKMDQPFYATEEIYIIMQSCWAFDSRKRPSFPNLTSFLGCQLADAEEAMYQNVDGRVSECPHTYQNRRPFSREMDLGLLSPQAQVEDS

The next experiment deals with T4, MST2 (Homo sapiens, UniProt Q13188).
T4 construct: purchased Eurofins DiscoverX KINOMEscan
T4 sequence (Q13188 1-491): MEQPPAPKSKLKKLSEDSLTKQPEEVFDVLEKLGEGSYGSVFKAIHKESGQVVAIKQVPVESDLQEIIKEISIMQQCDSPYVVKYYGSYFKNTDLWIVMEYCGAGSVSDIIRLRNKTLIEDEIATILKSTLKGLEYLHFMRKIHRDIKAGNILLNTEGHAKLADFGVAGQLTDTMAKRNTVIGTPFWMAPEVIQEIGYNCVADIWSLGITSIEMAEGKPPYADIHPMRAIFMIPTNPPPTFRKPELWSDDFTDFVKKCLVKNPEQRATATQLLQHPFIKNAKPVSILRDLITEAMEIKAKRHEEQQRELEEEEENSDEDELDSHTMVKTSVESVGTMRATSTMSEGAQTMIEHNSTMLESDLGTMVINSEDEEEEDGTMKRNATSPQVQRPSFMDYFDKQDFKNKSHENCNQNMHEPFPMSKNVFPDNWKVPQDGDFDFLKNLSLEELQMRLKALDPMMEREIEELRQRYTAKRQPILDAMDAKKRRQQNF

In the next experiment the target is T5, PLK4 (Homo sapiens, UniProt O00444).
T5 construct: purchased Eurofins DiscoverX KINOMEscan
T5 sequence (O00444 1-970): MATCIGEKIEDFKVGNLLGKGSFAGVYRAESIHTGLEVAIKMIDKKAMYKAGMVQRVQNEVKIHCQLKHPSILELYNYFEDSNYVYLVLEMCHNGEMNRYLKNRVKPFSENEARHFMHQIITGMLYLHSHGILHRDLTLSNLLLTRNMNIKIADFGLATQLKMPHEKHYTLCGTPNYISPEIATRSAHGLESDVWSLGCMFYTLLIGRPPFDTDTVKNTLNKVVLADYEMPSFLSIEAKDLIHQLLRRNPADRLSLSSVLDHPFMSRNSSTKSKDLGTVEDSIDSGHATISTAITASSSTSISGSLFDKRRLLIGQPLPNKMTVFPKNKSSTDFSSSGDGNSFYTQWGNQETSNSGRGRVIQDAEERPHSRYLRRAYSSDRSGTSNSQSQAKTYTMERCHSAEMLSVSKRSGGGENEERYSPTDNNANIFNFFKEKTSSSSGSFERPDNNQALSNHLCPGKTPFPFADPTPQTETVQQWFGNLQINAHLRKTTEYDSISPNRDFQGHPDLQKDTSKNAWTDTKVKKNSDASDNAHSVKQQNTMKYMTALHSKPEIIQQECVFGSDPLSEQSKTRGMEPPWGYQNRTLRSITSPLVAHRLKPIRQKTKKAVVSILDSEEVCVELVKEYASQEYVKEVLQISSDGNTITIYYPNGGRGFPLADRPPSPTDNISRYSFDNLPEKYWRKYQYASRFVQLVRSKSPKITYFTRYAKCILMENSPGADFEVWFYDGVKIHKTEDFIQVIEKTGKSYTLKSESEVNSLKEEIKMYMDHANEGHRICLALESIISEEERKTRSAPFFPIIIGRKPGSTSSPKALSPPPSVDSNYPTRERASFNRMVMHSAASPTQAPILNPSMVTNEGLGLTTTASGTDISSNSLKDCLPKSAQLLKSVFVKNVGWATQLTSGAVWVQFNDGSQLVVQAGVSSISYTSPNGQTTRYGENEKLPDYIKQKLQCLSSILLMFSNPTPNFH

For another experiment, the target named is T6, RET(V804L) (Homo sapiens, UniProt P07949, V804L).
T6 construct: purchased Eurofins DiscoverX KINOMEscan

Experiment [1] concerns the target T7, RSK4(Kin.Dom.2-C-terminal) (Homo sapiens, UniProt Q9UK32).
T7 construct: RSK4(Kin.Dom.2-C-terminal); purchased Eurofins DiscoverX KINOMEscan
T7 sequence (Q9UK32 426-683 limits assumed): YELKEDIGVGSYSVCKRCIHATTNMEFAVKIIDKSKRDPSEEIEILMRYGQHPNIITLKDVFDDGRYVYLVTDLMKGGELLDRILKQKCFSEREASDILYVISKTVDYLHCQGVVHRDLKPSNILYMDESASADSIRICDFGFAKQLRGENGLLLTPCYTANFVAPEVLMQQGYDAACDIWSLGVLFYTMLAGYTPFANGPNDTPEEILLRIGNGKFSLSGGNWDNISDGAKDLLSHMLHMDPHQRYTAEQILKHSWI

T2 sequence (P49336 whole entry): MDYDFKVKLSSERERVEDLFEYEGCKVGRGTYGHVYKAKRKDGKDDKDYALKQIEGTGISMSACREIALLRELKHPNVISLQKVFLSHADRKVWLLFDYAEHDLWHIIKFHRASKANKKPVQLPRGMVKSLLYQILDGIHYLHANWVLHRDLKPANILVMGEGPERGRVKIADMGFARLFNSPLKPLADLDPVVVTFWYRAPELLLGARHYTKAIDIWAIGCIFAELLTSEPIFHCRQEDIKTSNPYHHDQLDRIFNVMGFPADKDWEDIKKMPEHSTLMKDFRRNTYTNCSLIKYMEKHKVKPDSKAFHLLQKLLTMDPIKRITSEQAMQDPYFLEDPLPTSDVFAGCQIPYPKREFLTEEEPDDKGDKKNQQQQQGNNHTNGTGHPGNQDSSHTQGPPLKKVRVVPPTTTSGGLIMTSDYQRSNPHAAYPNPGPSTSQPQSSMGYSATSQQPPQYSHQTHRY
T1 sequence (O43683 whole entry): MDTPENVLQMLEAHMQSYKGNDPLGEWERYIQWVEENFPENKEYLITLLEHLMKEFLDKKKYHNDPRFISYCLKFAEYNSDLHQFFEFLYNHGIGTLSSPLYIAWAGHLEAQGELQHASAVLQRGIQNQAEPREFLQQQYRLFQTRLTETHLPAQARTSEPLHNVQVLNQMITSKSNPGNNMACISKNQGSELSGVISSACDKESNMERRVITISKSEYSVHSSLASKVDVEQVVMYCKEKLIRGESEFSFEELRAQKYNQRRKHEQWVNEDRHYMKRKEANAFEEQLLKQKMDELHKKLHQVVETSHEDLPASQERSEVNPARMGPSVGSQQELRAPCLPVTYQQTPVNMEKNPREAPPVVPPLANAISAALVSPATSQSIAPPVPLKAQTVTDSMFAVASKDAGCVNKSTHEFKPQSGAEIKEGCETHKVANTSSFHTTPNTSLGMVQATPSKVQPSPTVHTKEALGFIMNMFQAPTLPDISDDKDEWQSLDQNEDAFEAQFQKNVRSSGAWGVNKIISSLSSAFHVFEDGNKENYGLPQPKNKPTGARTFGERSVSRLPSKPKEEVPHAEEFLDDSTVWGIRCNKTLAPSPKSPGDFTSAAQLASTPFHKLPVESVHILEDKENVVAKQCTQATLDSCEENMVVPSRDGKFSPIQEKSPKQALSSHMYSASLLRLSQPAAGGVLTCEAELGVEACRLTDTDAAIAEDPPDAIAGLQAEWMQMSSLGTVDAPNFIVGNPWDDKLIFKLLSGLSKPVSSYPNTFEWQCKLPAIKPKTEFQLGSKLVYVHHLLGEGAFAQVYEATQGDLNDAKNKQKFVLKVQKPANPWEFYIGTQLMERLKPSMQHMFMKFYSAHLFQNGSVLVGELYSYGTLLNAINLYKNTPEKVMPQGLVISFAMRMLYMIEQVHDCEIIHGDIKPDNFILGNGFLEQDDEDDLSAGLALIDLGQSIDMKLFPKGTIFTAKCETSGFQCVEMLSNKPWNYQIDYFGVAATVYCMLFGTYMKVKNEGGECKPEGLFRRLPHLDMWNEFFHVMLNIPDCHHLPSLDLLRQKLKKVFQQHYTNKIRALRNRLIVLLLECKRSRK
T6 sequence (P07949 29-1114 V804L): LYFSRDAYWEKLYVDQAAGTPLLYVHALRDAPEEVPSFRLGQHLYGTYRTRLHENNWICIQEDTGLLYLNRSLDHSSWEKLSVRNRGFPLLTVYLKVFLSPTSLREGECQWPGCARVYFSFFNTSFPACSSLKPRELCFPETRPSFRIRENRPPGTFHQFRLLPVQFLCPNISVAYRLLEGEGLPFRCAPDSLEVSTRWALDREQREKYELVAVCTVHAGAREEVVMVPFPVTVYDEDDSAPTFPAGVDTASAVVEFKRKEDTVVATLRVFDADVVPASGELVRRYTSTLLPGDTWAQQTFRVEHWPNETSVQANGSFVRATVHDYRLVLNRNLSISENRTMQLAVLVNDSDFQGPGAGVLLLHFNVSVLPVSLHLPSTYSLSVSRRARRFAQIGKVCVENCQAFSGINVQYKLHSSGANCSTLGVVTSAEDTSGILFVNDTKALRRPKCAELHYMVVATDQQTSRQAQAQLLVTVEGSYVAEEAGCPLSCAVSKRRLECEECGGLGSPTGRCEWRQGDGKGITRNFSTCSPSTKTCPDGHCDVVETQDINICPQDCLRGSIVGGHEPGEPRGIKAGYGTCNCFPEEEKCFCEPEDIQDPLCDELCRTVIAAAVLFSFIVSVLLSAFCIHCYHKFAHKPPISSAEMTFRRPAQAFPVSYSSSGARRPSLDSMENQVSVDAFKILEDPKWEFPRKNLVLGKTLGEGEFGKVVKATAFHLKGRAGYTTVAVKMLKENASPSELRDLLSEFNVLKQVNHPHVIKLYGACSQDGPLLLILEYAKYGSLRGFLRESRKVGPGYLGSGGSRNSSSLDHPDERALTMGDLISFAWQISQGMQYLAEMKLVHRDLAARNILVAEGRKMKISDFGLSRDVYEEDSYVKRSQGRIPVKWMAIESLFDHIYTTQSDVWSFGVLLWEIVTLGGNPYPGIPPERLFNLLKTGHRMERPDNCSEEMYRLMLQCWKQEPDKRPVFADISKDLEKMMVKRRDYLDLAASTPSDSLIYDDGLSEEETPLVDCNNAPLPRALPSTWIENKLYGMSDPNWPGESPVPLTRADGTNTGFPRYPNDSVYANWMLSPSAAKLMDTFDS

Regarding `Clc1cc(NCC2CC2)c2ncc(-c3ccc4[nH]ncc4c3)n2n1` [compound 2, 6-Chloro-N-(cyclopropylmethyl)-3-(1H-indazol-5-yl)imidazo[1,2-b]pyridazin-8-amine], the remaining binding at 1 µM is 83% at BUB1; 82% on CDK8; 13% at FLT3(D835H); 85% at MST2; 87% at PLK4; 100% on RET(V804L). In experiment [1], the remaining binding at 1 µM turned out to be 92%.
As for `O=C(CN1CCOCC1)N[C@H]1CC[C@H](Nc2cc(Cl)nn3c(-c4ccc5[nH]ncc5c4)cnc23)CC1` [compound 26], the remaining binding at 1 µM on BUB1 was 58%; on CDK8, 97%; on FLT3(D835H), 5.5%; at MST2, 92%; at PLK4, 100%; on RET(V804L) it was 88%. Besides, the remaining binding at 1 µM in experiment [1] came to 56%.
For `CN1CCC(CNc2cc(Cl)nn3c(-c4cc5nc(Nc6ccccc6)[nH]c5cc4F)cnc23)CC1` [compound 31, 6-Chloro-3-(6-fluoro-2-(phenylamino)-1H-benzo[d]imidazol-5-yl)-N-((1-methylpiperidin-4-yl)methyl)imidazo[1,2-b]pyridazin-8-amine], the remaining binding at 1 µM was determined as 59% at BUB1; 70% at CDK8; 90% at FLT3(D835H); 100% on MST2; 99% on PLK4; 92% at RET(V804L). For the same compound, the remaining binding at 1 µM in experiment [1] amounted to 88%.
